PMC7449411, “In silico discovery and biological validation of ligands of FAD synthase, a promising new antimicrobial target” (PLoS Computational Biology, 2020)
Values after ≈ are worked out from the molar mass of the structure shown.

How the values were obtained:
[1] = tested on: C. diphteriae; experiment: MIC, resazurin broth microdilution; format: cell-based, Corynebacterium diphteriae
[2] = tested on: Mycobacteriumspecies; experiment: MIC against Mycobacterium species (S5 Fig legend); format: cell-based
[3] = molecular target: T1, CaFADS (Corynebacterium ammoniagenes, UniProt Q59263); experiment: Differential scanning fluorescence (thermal denaturation) binding to CaFADS; conditions: for Tm shift of CaFADS thermal denaturation: 2 μM CaFADS, compound up to 250 μM; for Kd: from differential scanning fluorescence data fitted to Eq 2, 20 mM PIPES pH 7.0, 10 mM MgCl2, 2% DMSO, n = 3, mean ± SD
T1 construct: made in house; host or cells: Escherichia coli BL21(DE3)
Procedure: Interaction of compounds with CaFADS was evaluated using fluorescence thermal denaturation, on the bases of the shifts in denaturation midpoints of thermal curves of the protein [65]. Denaturations were performed in a Stratagene Agilent Mx3005p qPCR instrument (Santa Clara, US) following SYPR Orange (ThermoFisher Scientific) emission fluorescence (excitation at 492 nm and emission at 610 nm), which greatly increases when this probe binds to protein hydrophobic regions becoming solvent exposed upon thermal unfolding. Solutions containing 2 μM CaFADS with the studied compound in an increasing 5-250 μM concentration range (2% residual final concentration of DMSO) and 5xSYPR Orange in 20 mM PIPES pH 7.0, 10 mM MgCl2, with a 100 μL total volume were dispensed into 96-well microplates (BRAND 96-well plates pure grade™). After an initial 1 min incubation at 25 °C within the equipment, unfolding curves were registered from 25 to 100 °C at 1 °C·min^−1. Control experiments with CaFADS samples with/without DMSO were routinely performed in each microplate. For those compounds shifting midpoint denaturation temperature, Tm, the dissociation constant, Kd, was predicted by fitting the data to the equation [66] ΔTm/Tm=NRTm0/ΔH0ln(1+[L]/Kd), (2) which estimates the extent of the ligand-induced protein stabilization/destabilization. ΔTm=|Tm-Tm0| with Tm0 and Tm being the midpoint denaturation temperatures in the absence and the presence of ligand, respectively, and ΔH0 the unfolding enthalpy of the protein in the absence of ligand.

[4] = tested on: S. pneumoniae; experiment: MIC, resazurin broth microdilution; format: cell-based, Streptococcus pneumoniae
[5] = tested on: HeLa; experiment: MTT cytotoxicity assay; format: cell-based; conditions: 24 h; for IC50: 4-512 μM range, read-out: IC50 (concentration causing 50% inhibition of cellular viability); for concentration range with moderate cytotoxicity: complete viability at lower concentrations
Procedure: (§1) The (4,5-dimethylthiazol-2-yl)-2,5-diphenyl tetrazolium bromide (MTT) assay was used to determine the effect of the compounds in cell growth and viability of HeLa (ATCC CCL-2) and A549 (ATCC CCL-185) eukaryotic cell lines. Both cell lines were routinely cultured in high-glucose DMEM (Lonza) supplemented with 10% fetal bovine serum, 4 mM glutamine GlutaMAX™ (Gibco) and 1x non-essential amino acids (Gibco), under 5% CO2 at 37 °C in a humidified atmosphere. For the MTT assay, cells were initially seeded in 96-well flat-bottom plates at a density of 10^4 cells per well and cultured for 24 h. Cultures were routinely tested for mycoplasma presence. The compounds were dissolved in fresh culture medium, added in a 4-512 μM concentration range (1% DMSO final concentration), and incubated with the cells for 24 h. Finally, formazan crystals were dissolved with pure DMSO and MTT absorbance was measured at 570 and 650 nm. Untreated cells were included as control of 100% viability. Assays were done in quadruplicate.

[6] = tested on: A549; experiment: MTT cytotoxicity assay; format: cell-based; conditions: 24 h; for IC50: 4-512 μM range, read-out: IC50 (concentration causing 50% inhibition of cellular viability); for concentration range with moderate cytotoxicity: complete viability at lower concentrations
Procedure: as §1

[7] = molecular target: T2, FMNAT activity of CaFADS (Corynebacterium ammoniagenes, UniProt Q59263); experiment: Inhibition of the FMNAT activity of CaFADS; format: biochemical; conditions: 25 °C; for FMNAT % Res. act. 250 μM: residual activity at 250 μM of compound
T2 construct: made in house; host or cells: Escherichia coli BL21(DE3)
Procedure: (§2) To determine the compound’s ability to inhibit the RFK and/or the FMNAT activities of CaFADS, both enzymatic activities were quantitatively measured in the absence and presence of the compounds following previously described protocols. Reaction mixtures contained 50 μM ATP, 5 μM RF in 20 mM PIPES, pH 7.0, 0.8 mM MgCl2, when assaying the RFK activity, and 50 μM ATP, 10 μM FMN in 20 mM PIPES, pH 7.0, 10 mM MgCl2 when measuring the FMNAT reaction. Each compound was tested at 250 μM (0.5% residual final concentration of DMSO) for each of the two enzymatic reactions. The samples were pre-incubated at 25 °C, the reaction was then initiated by the addition of ∼ 40 nM CaFADS (final concentration) and allowed for 1 min. Finally, the reaction was stopped by boiling the samples for 5 min and the denatured protein was eliminated through centrifugation. The transformation of RF into FMN and FAD (RFK activity) and of FMN into FAD (FMNAT activity) was evaluated through flavins separation by HPLC (Waters), as previously described. All the experiments were performed in triplicate. To evaluate the potency of compounds as inhibitors, we took advantage of the decrease in quantum yield of fluorescence when FMN is transformed into FAD, which allows to follow such transformation in a continuous system. Measurements were carried out using a microplate reader Synergy HT multimode plate reader (Biotek) with BRAND 96-well plates pure Grade. Reaction mixtures contained 5 μM RF or FMN, and 50 μM ATP in 20 mM PIPES, pH 7.0, 10 mM MgCl2, and the inhibitor compound in a 5-250 μM concentration range (2% residual final concentration of DMSO). Reactions were initiated through addition of 0.4 μM CaFADS, being the final reaction volume 100 μL. Flavin fluorescence (excitation at 440 nm and emission at 530 nm) was registered at 25 °C, every 50 s during 15 min. The fluorescence change per time unit (ΔF/Δt) was calculated as the slope of the resulting fluorescence decays recorded between 0 and 6 min (linear decay of the fluorescence). Controls which contained the reaction mixture without the enzyme and without any potential CaFADS inhibitory compound were included in the assay and referred as the 0% and 100% of enzymatic activity, respectively. IC50 was calculated as the concentration of compound required for a 50% inhibition of the enzymatic activity.

[8] = tested on: L. monocytogenes; experiment: MIC, resazurin broth microdilution; format: cell-based, Listeria monocytogenes; conditions: media BHI
[9] = tested on: C. ammoniagenes; experiment: MIC, resazurin broth microdilution; format: cell-based, Corynebacterium ammoniagenes; conditions: for MIC: C. ammoniagenes; for MIC C. ammoniagenes: S5 Fig legend, medium not stated; for MIC (μM) C. ammoniagenes: Table 3
[10] = tested on: M. tuberculosis; experiment: MIC, resazurin broth microdilution; format: cell-based, Mycobacterium tuberculosis; conditions: for MIC (μM) M. tuberculosis: Table 3; for MIC: M. tuberculosis, media 7H9G-ADC
[11] = tested on: M. smegmatis; experiment: MIC, resazurin broth microdilution; format: cell-based, Mycobacterium smegmatis; conditions: media 7H9G-ADC
[12] = tested on: S. aureus; experiment: MIC, resazurin broth microdilution; format: cell-based, Staphylococcus aureus; conditions: media MH
[13] = tested on: P. aeruginosa; experiment: MIC, resazurin broth microdilution; format: cell-based, Pseudomonas aeruginosa; conditions: media MH
[14] = tested on: E. coli; experiment: MIC, resazurin broth microdilution; format: cell-based, Escherichia coli; conditions: media LB
[15] = molecular target: T3, RFK+FMNAT CaFADS activities (Corynebacterium ammoniagenes, UniProt Q59263); experiment: Inhibition of the RFK+FMNAT activity of CaFADS; format: biochemical; conditions: 25 °C; for RFK+FMNAT % Res. act. 250 μM: residual activity at 250 μM of compound
T3 construct: made in house; host or cells: Escherichia coli BL21(DE3)
Procedure: as §2

[16] = tested on: S. thyphimurium; experiment: MIC, resazurin broth microdilution; format: cell-based, Salmonella thyphimurium; conditions: media MH
[17] = tested on: C. glutamicum; experiment: MIC, resazurin broth microdilution; format: cell-based, Corynebacterium glutamicum; conditions: media BHI
[18] = tested on: Bacillus spp.; experiment: MIC, resazurin broth microdilution; format: cell-based, Bacillus sp.; conditions: media MH

T3 sequence (Q59263 whole entry): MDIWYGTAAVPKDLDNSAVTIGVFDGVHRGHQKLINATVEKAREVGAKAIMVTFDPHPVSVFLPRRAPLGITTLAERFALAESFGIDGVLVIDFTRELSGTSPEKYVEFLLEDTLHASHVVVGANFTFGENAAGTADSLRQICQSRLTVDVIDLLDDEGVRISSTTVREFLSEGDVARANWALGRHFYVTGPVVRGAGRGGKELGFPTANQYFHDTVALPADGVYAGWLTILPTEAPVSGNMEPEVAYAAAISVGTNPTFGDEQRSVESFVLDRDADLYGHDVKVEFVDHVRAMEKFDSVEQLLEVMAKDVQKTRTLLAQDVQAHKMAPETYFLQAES
T1 sequence (Q59263 whole entry): as above
T2 sequence (Q59263 whole entry): as above

Row | SMILES | MIC ([1]; media BHI) | MIC ([1]; media MH) | MIC Mycobacterium species [2] | Tm shift of CaFADS thermal denaturation [3] | Kd [3] | MIC ([4]; media BHI) | MIC [8] | MIC ([9]; media MH) | MIC ([9]; media MH+DFO) | MIC ([9]; media MH+DIP) | MIC ([9]; media MH+DIP+DFO) | MIC C. ammoniagenes [9] | MIC (μM) C. ammoniagenes [9] | MIC (μM) M. tuberculosis [10] | MIC [12] | MIC [13] | MIC [14] | MIC [16] | MIC [17] | MIC [10] | also measured
1 | CC(C)c1ccc(NC(=S)NNC(=O)NC(=O)c2csc([N+](=O)[O-])c2)cc1 [Compound C6, N-({2-[(4-isopropylanilino)carbothioyl]hydrazino}carbonyl)-5-nitrothiophene-3-carboxamide] | > 64 µM | 128 µM (≈ 52.2 µg/mL) | lower than 256 μM | more than 3 degrees | 41 ± 3 µM | > 256 µM | > 64 µM | 128 µM (≈ 52.2 µg/mL) | 128 µM (≈ 52.2 µg/mL) | 128 µM (≈ 52.2 µg/mL) | 128 µM (≈ 52.2 µg/mL) | lower than 256 μM | 128 µM (≈ 52.2 µg/mL) | 128 µM (≈ 52.2 µg/mL) | > 256 µM | > 256 µM | > 64 µM | > 256 µM | > 64 µM |  | MIC ([4]; media MH): 64 µM (≈ 26.1 µg/mL); IC50 [5]: > 512 µM; IC50 [6]: > 512 µM; FMNAT % Res. act. 250 μM [7]: 48 ± 6%; MIC ([9]; media BHI): > 64 µM; MIC [11]: > 256 µM; RFK+FMNAT % Res. act. 250 μM [15]: 57 ± 3%
2 | COc1ccc(C(NC(=O)CCC(NC(=O)OCc2ccccc2)C(=O)O)c2ccc(OC)cc2)cc1 (stereo not drawn) [Compound C2, 2-{[(benzyloxy)carbonyl]amino}-5-{[di(4-methoxyphenyl)methyl]amino}-5-oxopentanoic acid] | 64 µM (≈ 32.4 µg/mL) | 128 µM (≈ 64.8 µg/mL) | lower than 256 μM |  |  | 256 µM (≈ 130 µg/mL) | > 64 µM | 128 µM (≈ 64.8 µg/mL) | 128 µM (≈ 64.8 µg/mL) | 128 µM (≈ 64.8 µg/mL) | 64 µM (≈ 32.4 µg/mL) | 64 µM (≈ 32.4 µg/mL) | 128 µM (≈ 64.8 µg/mL) | 256 µM (≈ 130 µg/mL) | 128 µM (≈ 64.8 µg/mL) | > 256 µM | > 64 µM | > 256 µM | 16 µM (≈ 8.1 µg/mL) | 256 µM (≈ 130 µg/mL) | MIC ([4]; media MH): > 256 µM; IC50 [5]: > 512 µM; IC50 [6]: > 512 µM; FMNAT % Res. act. 250 μM [7]: >95%; MIC ([9]; media BHI): 64 µM (≈ 32.4 µg/mL); MIC [11]: 256 µM (≈ 130 µg/mL); RFK+FMNAT % Res. act. 250 μM [15]: 88 ± 2%
3 | O=C(O)c1ccccc1C(=O)NC1CCN(c2nccc(C(F)(F)F)n2)CC1 [Compound C18, 2-[({1-[4-(trifluoromethyl)pyrimidin-2-yl]piperidin-4-yl}amino)carbonyl]benzoic acid] |  | 32 µM (≈ 12.6 µg/mL) |  | shifted it to lower values | 3 ± 0.9 µM |  | 64 µM (≈ 25.2 µg/mL) | > 256 µM |  | > 256 µM | 256 µM (≈ 101 µg/mL) |  |  |  | 256 µM (≈ 101 µg/mL) | > 256 µM | > 256 µM | > 256 µM | > 256 µM | > 256 µM | concentration range with moderate cytotoxicity [5]: 256 to 512 µM; concentration range with moderate cytotoxicity [6]: 256 to 512 µM; IC50 ([7]; kinetic measurements, 5 μM FMN, 50 μM ATP, 20 mM PIPES pH 7.0, 10 mM MgCl2, 2% DMSO): 143 ± 4 µM; IC50 ([15]; kinetic measurements, 20 mM PIPES pH 7.0, 10 mM MgCl2, 2% DMSO): 147 ± 4 µM
4 | CC1(C)c2ccccc2-n2c1cc1oc(=O)cc(O)c1c2=O [Compound C27, 4-hydroxy-11,11-dimethyl-5,11-dihydro-2H-pyrano[2',3':4,5]pyrido[1,2-a]indole-2,5-dione] |  | 64 µM (≈ 18.9 µg/mL) | lower than 256 μM |  |  |  | 64 µM (≈ 18.9 µg/mL) | 128 µM (≈ 37.8 µg/mL) | 128 µM (≈ 37.8 µg/mL) | 64 µM (≈ 18.9 µg/mL) | 128 µM (≈ 37.8 µg/mL) | lower than 256 μM | 128 µM (≈ 37.8 µg/mL) | 256 µM (≈ 75.6 µg/mL) | 64 µM (≈ 18.9 µg/mL) | > 256 µM | > 256 µM | > 256 µM | 64 µM (≈ 18.9 µg/mL) | 256 µM (≈ 75.6 µg/mL) | MIC [18]: 32 µM (≈ 9.45 µg/mL); concentration range with moderate cytotoxicity [5]: 256 to 512 µM; concentration range with moderate cytotoxicity [6]: 256 to 512 µM
